In the Kinase Knowledgebase extract (Sharma et al. 2016):

How the values were obtained:
PIK3CA (human) = PIK3CA (human) (UniProt P42336); assay: Enzyme Assay
PIK3CB (Human) = PIK3CB (Human) (UniProt P42338); assay: Enzyme Assay
PIK3CG (human) = PIK3CG (human) (UniProt P48736); assay: Enzyme Assay
PIK3CD (Human) [1] = molecular target: PIK3CD (Human) (UniProt O00329); assay: Enzyme Assay
PIK3CD (Human) [2] = molecular target: PIK3CD (Human) (UniProt O00329); assay: Cell-Based Assay; details: raji

Sequence of PIK3CD (Human) (O00329 whole entry, looked up): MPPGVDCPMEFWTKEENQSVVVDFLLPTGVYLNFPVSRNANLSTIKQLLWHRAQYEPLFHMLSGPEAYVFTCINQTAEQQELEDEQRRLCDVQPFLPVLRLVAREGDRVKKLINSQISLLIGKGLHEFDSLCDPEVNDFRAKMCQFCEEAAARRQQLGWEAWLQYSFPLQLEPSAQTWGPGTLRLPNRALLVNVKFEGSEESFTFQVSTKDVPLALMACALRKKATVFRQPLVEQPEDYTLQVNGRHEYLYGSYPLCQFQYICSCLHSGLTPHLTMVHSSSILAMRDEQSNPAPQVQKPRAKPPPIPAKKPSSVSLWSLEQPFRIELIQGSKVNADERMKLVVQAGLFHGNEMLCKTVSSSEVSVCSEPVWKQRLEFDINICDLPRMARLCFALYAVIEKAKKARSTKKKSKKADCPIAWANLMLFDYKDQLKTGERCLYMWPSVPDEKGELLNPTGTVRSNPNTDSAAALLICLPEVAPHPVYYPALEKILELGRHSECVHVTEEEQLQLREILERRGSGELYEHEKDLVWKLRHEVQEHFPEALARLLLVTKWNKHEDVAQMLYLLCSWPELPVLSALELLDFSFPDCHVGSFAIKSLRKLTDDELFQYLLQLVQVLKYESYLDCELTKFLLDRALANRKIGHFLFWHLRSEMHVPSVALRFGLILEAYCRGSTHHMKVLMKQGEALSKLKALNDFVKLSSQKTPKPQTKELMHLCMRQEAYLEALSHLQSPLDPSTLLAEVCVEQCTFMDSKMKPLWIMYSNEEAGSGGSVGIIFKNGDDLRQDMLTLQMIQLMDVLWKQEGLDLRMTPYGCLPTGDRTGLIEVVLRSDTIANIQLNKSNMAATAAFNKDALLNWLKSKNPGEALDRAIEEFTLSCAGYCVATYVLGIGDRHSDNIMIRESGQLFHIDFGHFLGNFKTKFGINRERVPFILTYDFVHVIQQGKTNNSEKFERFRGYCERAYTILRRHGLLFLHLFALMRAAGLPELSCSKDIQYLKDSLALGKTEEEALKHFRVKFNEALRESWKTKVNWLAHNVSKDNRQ
Sequence of PIK3CA (human) (P42336 whole entry, looked up): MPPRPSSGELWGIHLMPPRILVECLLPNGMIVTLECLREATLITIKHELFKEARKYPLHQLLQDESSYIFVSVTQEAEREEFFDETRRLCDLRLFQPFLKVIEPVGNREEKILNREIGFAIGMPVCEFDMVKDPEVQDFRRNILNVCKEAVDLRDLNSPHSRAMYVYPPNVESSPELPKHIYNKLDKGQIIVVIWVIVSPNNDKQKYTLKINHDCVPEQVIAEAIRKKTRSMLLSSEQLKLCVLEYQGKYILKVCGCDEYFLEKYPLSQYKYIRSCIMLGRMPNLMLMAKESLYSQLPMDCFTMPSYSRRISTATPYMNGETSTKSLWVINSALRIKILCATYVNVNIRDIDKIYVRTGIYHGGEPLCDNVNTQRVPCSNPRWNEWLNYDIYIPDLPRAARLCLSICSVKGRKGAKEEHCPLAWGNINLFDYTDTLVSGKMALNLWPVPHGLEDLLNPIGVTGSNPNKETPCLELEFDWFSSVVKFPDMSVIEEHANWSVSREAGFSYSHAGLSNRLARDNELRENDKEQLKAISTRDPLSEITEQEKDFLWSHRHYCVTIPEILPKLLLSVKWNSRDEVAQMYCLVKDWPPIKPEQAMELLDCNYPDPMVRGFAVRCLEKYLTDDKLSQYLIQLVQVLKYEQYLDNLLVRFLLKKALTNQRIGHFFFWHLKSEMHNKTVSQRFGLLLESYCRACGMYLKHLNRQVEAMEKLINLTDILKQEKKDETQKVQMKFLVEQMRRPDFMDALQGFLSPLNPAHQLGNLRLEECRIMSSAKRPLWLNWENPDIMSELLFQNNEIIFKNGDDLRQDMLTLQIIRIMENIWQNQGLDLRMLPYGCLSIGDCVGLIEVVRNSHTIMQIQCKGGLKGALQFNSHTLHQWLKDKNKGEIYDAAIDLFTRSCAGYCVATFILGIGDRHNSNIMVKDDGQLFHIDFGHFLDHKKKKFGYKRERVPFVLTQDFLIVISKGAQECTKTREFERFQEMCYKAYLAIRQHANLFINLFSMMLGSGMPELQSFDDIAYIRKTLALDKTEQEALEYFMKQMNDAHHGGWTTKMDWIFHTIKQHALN
Sequence of PIK3CB (Human) (P42338 whole entry, looked up): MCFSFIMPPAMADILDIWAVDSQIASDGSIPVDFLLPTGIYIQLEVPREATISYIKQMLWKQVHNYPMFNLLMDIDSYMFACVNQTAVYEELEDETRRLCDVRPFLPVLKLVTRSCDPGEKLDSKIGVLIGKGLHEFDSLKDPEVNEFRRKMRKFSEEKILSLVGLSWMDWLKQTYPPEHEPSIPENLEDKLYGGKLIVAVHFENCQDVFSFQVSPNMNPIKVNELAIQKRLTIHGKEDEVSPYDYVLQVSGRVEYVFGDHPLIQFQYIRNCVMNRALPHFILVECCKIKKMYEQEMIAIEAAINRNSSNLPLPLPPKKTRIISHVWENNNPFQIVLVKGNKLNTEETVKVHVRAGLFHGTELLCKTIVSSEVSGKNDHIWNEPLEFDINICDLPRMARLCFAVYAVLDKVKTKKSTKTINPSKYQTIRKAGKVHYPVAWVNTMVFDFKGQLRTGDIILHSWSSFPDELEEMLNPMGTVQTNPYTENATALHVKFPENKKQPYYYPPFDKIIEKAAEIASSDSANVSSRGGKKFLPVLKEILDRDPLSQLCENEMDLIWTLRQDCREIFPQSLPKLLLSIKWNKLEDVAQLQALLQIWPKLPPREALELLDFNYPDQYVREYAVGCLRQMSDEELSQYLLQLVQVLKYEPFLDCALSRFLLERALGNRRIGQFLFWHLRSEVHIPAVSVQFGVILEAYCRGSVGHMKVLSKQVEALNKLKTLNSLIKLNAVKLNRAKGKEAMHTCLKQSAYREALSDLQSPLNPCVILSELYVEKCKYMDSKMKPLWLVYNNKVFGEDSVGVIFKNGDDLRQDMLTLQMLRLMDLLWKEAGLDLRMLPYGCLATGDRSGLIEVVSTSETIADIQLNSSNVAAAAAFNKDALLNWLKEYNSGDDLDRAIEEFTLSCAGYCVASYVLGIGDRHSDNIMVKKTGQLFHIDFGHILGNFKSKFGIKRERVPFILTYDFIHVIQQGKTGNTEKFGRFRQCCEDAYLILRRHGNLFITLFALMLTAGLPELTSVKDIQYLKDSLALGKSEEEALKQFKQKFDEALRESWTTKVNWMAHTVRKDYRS
Sequence of PIK3CG (human) (P48736 whole entry, looked up): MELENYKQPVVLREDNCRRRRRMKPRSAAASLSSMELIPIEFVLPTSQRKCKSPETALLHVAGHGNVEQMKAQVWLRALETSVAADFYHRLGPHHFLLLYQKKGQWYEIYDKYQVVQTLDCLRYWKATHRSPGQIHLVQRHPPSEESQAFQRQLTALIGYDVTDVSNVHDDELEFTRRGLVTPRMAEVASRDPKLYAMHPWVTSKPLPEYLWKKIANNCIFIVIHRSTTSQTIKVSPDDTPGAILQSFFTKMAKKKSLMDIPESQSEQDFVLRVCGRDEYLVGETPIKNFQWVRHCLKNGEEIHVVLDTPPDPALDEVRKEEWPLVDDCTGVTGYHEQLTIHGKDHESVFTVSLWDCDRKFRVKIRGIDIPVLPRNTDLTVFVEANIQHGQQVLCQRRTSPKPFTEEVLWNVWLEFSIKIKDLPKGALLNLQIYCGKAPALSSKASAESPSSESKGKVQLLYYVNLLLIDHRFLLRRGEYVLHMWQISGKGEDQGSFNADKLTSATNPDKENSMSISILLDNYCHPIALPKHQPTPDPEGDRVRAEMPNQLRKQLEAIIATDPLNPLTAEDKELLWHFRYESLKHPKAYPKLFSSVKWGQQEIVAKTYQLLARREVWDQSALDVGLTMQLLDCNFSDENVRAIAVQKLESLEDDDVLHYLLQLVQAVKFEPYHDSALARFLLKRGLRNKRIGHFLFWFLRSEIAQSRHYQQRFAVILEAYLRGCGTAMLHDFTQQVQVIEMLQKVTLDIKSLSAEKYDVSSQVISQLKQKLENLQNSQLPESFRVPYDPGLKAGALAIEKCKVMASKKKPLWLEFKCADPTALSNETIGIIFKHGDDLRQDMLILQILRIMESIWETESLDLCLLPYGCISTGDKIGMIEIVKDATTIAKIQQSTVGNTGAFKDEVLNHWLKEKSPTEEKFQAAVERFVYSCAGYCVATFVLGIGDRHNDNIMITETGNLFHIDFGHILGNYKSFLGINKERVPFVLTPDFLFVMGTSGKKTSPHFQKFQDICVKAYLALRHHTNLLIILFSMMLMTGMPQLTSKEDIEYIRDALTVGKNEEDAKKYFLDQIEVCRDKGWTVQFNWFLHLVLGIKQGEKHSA

Q: What does the source list for `C[C@H](NC(=O)c1c(N)nn2ccc(-c3cccc(S(C)(=O)=O)c3)nc12)c1cc2cccc(Cl)c2c(=O)n1-c1ccccc1`?
A: IC50 (PIK3CA (human)): < 100 nM; IC50 (PIK3CB (Human)): < 100 nM; IC50 (PIK3CG (human)): < 100 nM; IC50 (PIK3CD (Human) [1]): < 100 nM; IC50 (PIK3CD (Human) [2]): < 100 nM

Q: Which IC50 (PIK3CA (human)) does the source give for `C[C@H](NC(=O)c1nc(-c2cncc(NS(C)(=O)=O)c2)cnc1N)c1cc2cccc(Cl)c2c(=O)n1-c1ccccc1` here?
A: Its IC50 is 100 to 1000 nM.

Q: What about the IC50 (PIK3CB (Human)) of the same compound?
A: Its IC50 is < 100 nM.

Q: What about the IC50 (PIK3CG (human)) of the same compound?
A: Its IC50 is < 100 nM.

Q: And the IC50 (PIK3CD (Human) [1])?
A: Its IC50 is 100 to 1000 nM.

Q: What about the IC50 (PIK3CD (Human) [2]) of the same compound?
A: Its IC50 is 100 to 1000 nM.
